We go through 49 molecules from US12037333B2, “Pyridopyrazine and pyridotriazine inhibitors of influenza virus replication” (priority 2018, dated 2024).

Each structure is given as a SMILES string. A value given as a limit tells only on which side of the number the result lay.

As usually defined, the EC50 is the concentration that produces a half-maximal response. A low value points to higher potency in that assay.

The first assay relates to Influenza type A (strain A/PR/8/34, ATCC VR-95). Put plainly: Influenza antiviral assay: inhibition of virus-induced cytopathic effects (CPE) in MDCK cells, XTT dye reduction. It is filed as cell-based. Conditions: Influenza A (H1N1), strain A/PR/8/34, MDCK cells, CPE inhibition at 4 days.
In the case of `CC1N(CC(F)F)C(=O)c2c(O)c(=O)ccn2N1C12c3ccccc3CC1Cc1c2ccc(F)c1F` (stereo not shown) [Compound A136], the 50% effective concentration (EC50) fell in the range of 375 to 500 nM.

Still in this assay, the particulars now being: Influenza A virus, H1N1 / PR/8, MDCK, 96 h, strain A/PR/8/34, MDCK cells, CPE inhibition at 4 days.
The molecule `CC1N(CCF)C(=O)c2c(O)c(=O)ccn2N1C12c3ccccc3CC1Cc1c(Cl)cccc12` (stereo not shown) [Compound A115] yielded an EC50 of 375 to 500 nM.

The molecule `O=C1c2c(O)c(=O)ccn2N(C23c4ccccc4CC2Cc2cc(F)c(F)cc23)CN1Cc1ccc(F)cc1` (stereo not shown) [Compound A23, 1-(2,3-Difluoro-9a,10-dihydro-9H-indeno[1,2-a]inden-4b-yl)-3-(4-fluoro-benzyl)-5-hydroxy-2,3-dihydro-1H-pyrido[2,1-f][1,2,4]triazine-4,6-dione] gave an EC50 greater than 500 nM.

Regarding `CN1C(=O)c2c(O)c(=O)ccn2N(C23C(=Cc4c(F)cccc42)Cc2c(F)cccc23)C1CN` (stereo not shown) [Compound A106, 2-(aminomethyl)-1-(1,8-difluoroindeno[1,2-a]inden-4b(9H)-yl)-5-hydroxy-3-methyl-2,3-dihydro-1H-pyrido[2,1-f][1,2,4]triazine-4,6-dione], the EC50 lay within 125 to 250 nM.

For `O=C1c2c(O)c(=O)ccn2N(C23c4ccccc4CC2Cc2c(Cl)cccc23)CN1CC1CCCC1` (stereo not shown) [Compound A104], the EC50 was greater than 500 nM.

In the case of `CC1N(C2CCC2)C(=O)c2c(O)c(=O)ccn2N1C12c3ccccc3CC1Cc1c(F)cccc12` (stereo not shown) [Compound A141], the EC50 was in the range of 375 to 500 nM.

`CN1CN(C23c4ccccc4CC2(C(F)F)Cc2ccccc23)n2ccc(=O)c(O)c2C1=O` (stereo not shown) [Compound A63] returned an EC50 of 125 to 250 nM.

Regarding `CN1CN(C23c4ccccc4CC2Cc2cc(F)c(F)cc23)n2ccc(=O)c(O)c2C1=O` (stereo not shown) [Compound A19, 1-(2,3-difluoro-9a,10-dihydroindeno[1,2-a]inden-4b(9H)-yl)-5-hydroxy-3-methyl-2,3-dihydro-1H-pyrido[2,1-f][1,2,4]triazine-4,6-dione], the EC50 is less than 125 nM.

In turn, `CN1C(=O)c2c(O)c(=O)ccn2N(C23c4cccc(F)c4CC2Cc2c(F)cccc23)C1CN` (stereo not shown) [Compound A107, 2-(aminomethyl)-1-(1,8-difluoro-9a,10-dihydroindeno[1,2-a]inden-4b(9H)-yl)-5-hydroxy-3-methyl-2,3-dihydro-1H-pyrido[2,1-f][1,2,4]triazine-4,6-dione] yielded an EC50 of 125 to 250 nM.

Consider `CCOC12Cc3ccccc3C1(N1CN(CC)C(=O)c3c(O)c(=O)ccn31)c1ccccc1C2` (stereo not shown) [Compound A48, 1-(9a-Ethoxy-9a,10-dihydroindeno[1,2-a]inden-4b(9H)-yl)-3-ethyl-5-hydroxy-2,3-dihydro-1H-pyrido[2,1-f][1,2,4]triazine-4,6-dione], for which the EC50 is less than 125 nM.

`O=C1c2c(O)c(=O)ccn2N(C23c4ccccc4CC2Cc2c3ccc(F)c2F)CN1C1CCC1` (stereo not shown) [Compound A92, 3-Cyclobutyl-1-(1,2-difluoro-9a,10-dihydroindeno[1,2-a]inden-4b(9H)-yl)-5-hydroxy-2,3-dihydro-1H-pyrido[2,1-f][1,2,4]triazine-4,6-dione]: the EC50 was 250 to 375 nM.

In turn, `COC12Cc3ccccc3C1(N1CN(C)C(=O)c3c(O)c(=O)ccn31)c1ccccc1C2` (stereo not shown) [Compound A62] gave an EC50 of 125 to 250 nM.

For `CCN1CN(C23c4ccccc4CC2Cc2c3ccc(F)c2Cl)n2ccc(=O)c(O)c2C1=O` (stereo not shown) [Compound A47], the EC50 is less than 125 nM.

`O=C1c2c(O)c(=O)ccn2N(C23c4ccccc4CC2Cc2cc(F)c(F)cc23)CN1Cc1ccccc1` (stereo not shown) [Compound A21, 3-benzyl-1-(2,3-difluoro-9a,10-dihydroindeno[1,2-a]inden-4b(9H)-yl)-5-hydroxy-2,3-dihydro-1H-pyrido[2,1-f][1,2,4]triazine-4,6-dione] had an EC50 of 250 to 375 nM.

Regarding `CC1N(C)C(=O)c2c(O)c(=O)ccn2N1C12c3ccccc3CC1Cc1c(F)cccc12` (stereo not shown) [Compound A60], the EC50 is less than 125 nM.

Turning to `CCN1CN(C23c4ccccc4CC2(OC)Cc2ccccc23)n2ccc(=O)c(O)c2C1=O` (stereo not shown) [Compound A152], the EC50 was less than 125 nM.

Consider `CN1CN(C23c4ccccc4CC2Cc2c3ccc(F)c2Cl)n2ccc(=O)c(O)c2C1=O` (stereo not shown) [Compound A46, 1-(1-Chloro-2-fluoro-9a,10-dihydroindeno[1,2-a]inden-4b(9H)-yl)-5-hydroxy-3-methyl-2,3-dihydro-1H-pyrido[2,1-f][1,2,4]triazine-4,6-dione], for which the EC50 is less than 125 nM.

The molecule `O=C1c2c(O)c(=O)ccn2N(C23c4cccc(F)c4CC2Cc2c(F)cccc23)CN1CCc1ccccc1` (stereo not shown) [Compound A86] had an EC50 of 125 to 250 nM.

`CC(CCN1CN(C23c4ccccc4CC2Cc2ccccc23)n2ccc(=O)c(O)c2C1=O)c1ccccc1` (stereo not shown) [Compound A32, 1-(9a,10-dihydroindeno[1,2-a]inden-4b(9H)-yl)-5-hydroxy-3-(3-phenylbutyl)-2,3-dihydro-1H-pyrido[2,1-f][1,2,4]triazine-4,6-dione] displayed an EC50 greater than 500 nM.

Consider `CN1CN(C23c4ccccc4CC2(C)Cc2ccccc23)n2ccc(=O)c(O)c2C1=O` (stereo not shown) [Compound A150], for which the EC50 was less than 125 nM.

`CCN1CN(C23c4cccc(F)c4CC2Cc2c(Cl)cccc23)n2ccc(=O)c(O)c2C1=O` (stereo not shown) [Compound A151] came in with a concentration for a half-maximal effect (EC50) of less than 125 nM.

Consider `O=C1c2c(O)c(=O)ccn2N(C23c4ccccc4CC2Cc2c(F)cccc23)CN1CCc1ccccc1` (stereo not shown) [Compound A87], for which the EC50 was in the range of 125 to 250 nM.

The molecule `CCN1CN(C23c4ccccc4CC2Cc2c3ccc(C)c2F)n2ccc(=O)c(O)c2C1=O` (stereo not shown) [Compound A98] gave an EC50 of 250 to 375 nM.

`CC(C)N1CN(C23c4ccccc4CC2(C)Cc2c3ccc(F)c2F)n2ccc(=O)c(O)c2C1=O` (stereo not shown) [Compound A167] showed an EC50 of less than 125 nM.

Molecule `COCCN1CN(C23c4ccccc4CC2Cc2c3ccc(F)c2F)n2ccc(=O)c(O)c2C1=O` (stereo not shown) [Compound A70] returned an EC50 of less than 125 nM.

As for `CC(C)N1CN(C23c4ccccc4CC2(C)Cc2ccccc23)n2ccc(=O)c(O)c2C1=O` (stereo not shown) [Compound A50, 5-hydroxy-3-isopropyl-1-(9a-methyl-9a,10-dihydroindeno[1,2-a]inden-4b(9H)-yl)-2,3-dihydro-1H-pyrido[2,1-f] [1,2,4] triazine-4,6-dione], the EC50 is less than 125 nM.

Regarding `CCN1C(=O)c2c(O)c(=O)ccn2N(C23c4ccccc4CC2Cc2c(F)cccc23)C1C` (stereo not shown) [Compound A138], the EC50 lay in the range of 125 to 250 nM.

Regarding `O=C1c2c(O)c(=O)ccn2N(C23c4ccccc4CC2Cc2cc(F)c(F)cc23)CN1CCc1ccccc1` (stereo not shown) [Compound A22, 1-(2,3-difluoro-9a,10-dihydroindeno[1,2-a]inden-4b(9H)-yl)-5-hydroxy-3-phenethyl-2,3-dihydro-1H-pyrido[2,1-f][1,2,4]triazine-4,6-dione], the EC50 was 250 to 375 nM.

`O=C1c2c(O)c(=O)ccn2N(C23c4cccc(F)c4CC2Cc2c(F)cccc23)CN1CCF` (stereo not shown) [Compound A58] gave an EC50 of less than 125 nM.

Turning to `CCC1N(C)C(=O)c2c(O)c(=O)ccn2N1C12c3ccccc3CC1Cc1ccccc12` (stereo not shown) [Compound A166], the EC50 was less than 125 nM.

`O=C1c2c(O)c(=O)ccn2N(C23c4ccccc4CC2Cc2c3ccc(F)c2F)CN1CCc1cccc(F)c1` (stereo not shown) [Compound A27, 1-(1,2-difluoro-9a,10-dihydroindeno[1,2-a]inden-4b(9H)-yl)-3-(3-fluorophenethyl)-5-hydroxy-2,3-dihydro-1H-pyrido[2,1-f][1,2,4]triazine-4,6-dione] showed an EC50 of 125 to 250 nM.

Molecule `CCN1CN(C23c4ccccc4CC2(CC)Cc2c3ccc(F)c2F)n2ccc(=O)c(O)c2C1=O` (stereo not shown) [Compound A56] displayed a 50% effective concentration (EC50) of less than 125 nM.

Regarding `O=C1c2c(O)c(=O)ccn2N(C23c4ccccc4CC2Cc2c3ccc(F)c2F)CN1CCF` (stereo not shown) [Compound A74], the EC50 was 125 to 250 nM.

`CCOC12Cc3ccccc3C1(N1CN(C)C(=O)c3c(O)c(=O)ccn31)c1ccccc1C2` (stereo not shown) [Compound A57] displayed an EC50 of less than 125 nM.

Consider `CCN1CN(C23c4ccccc4CC2Cc2c3ccc(F)c2F)n2ccc(=O)c(O)c2C1=O` (stereo not shown) [Compound A14, 1-(1,2-Difluoro-9a,10-dihydro-9H-indeno[1,2-a]inden-4b-yl)-3-ethyl-5-hydroxy-2,3-dihydro-1H-pyrido[2,1-f][1,2,4]triazine-4,6-dione], for which the EC50 was less than 125 nM.

Regarding `CN1CN(C23c4ccccc4CC2(C)Cc2cc(F)ccc23)n2ccc(=O)c(O)c2C1=O` (stereo not shown) [Compound A126], the EC50 lay within 125 to 250 nM.

In turn, `CC1N(CCF)C(=O)c2c(O)c(=O)ccn2N1C12c3ccccc3CC1Cc1c(F)cccc12` (stereo not shown) [Compound A121] registered an EC50 of 125 to 250 nM.

As to `O=C1c2c(O)c(=O)ccn2N(C23c4ccccc4CC2Cc2c(Cl)cccc23)CN1CC1CCC1` (stereo not shown) [Compound A112], the EC50 was 375 to 500 nM.

As to `CC1N(CC2CC2)C(=O)c2c(O)c(=O)ccn2N1C12c3ccccc3CC1Cc1c2ccc(F)c1F` (stereo not shown) [Compound A128], the EC50 was 250 to 375 nM.

As to `CCN1CN(C23c4ccccc4CC2(C)Cc2ccccc23)n2ccc(=O)c(O)c2C1=O` (stereo not shown) [Compound A147], the EC50 was less than 125 nM.

`CC(C)N1CN(C23c4cccc(F)c4CC2(C)Cc2c(F)cccc23)n2ccc(=O)c(O)c2C1=O` (stereo not shown) [Compound A89] displayed an EC50 of 125 to 250 nM.

As for `CN1CN(C23c4ccccc4CC2Cc2cccc(F)c23)n2ccc(=O)c(O)c2C1=O` (stereo not shown) [Compound A145], the EC50 is less than 125 nM.

Turning to `O=C1c2c(O)c(=O)ccn2N(C23c4ccccc4CC2Cc2c(F)cccc23)CN1CC(F)F` (stereo not shown) [Compound A83], the EC50 was less than 125 nM.

For `O=C1c2c(O)c(=O)ccn2N(C23c4ccccc4CC2Cc2c3ccc(F)c2F)CN1C1CC1` (stereo not shown) [Compound A61], the EC50 was less than 125 nM.

Take `CC1N(C)C(=O)c2c(O)c(=O)ccn2N1C12c3ccccc3CC1Cc1ccccc12` (stereo not shown) [Compound A158]: the EC50 is 125 to 250 nM.

As to `CCN1CN(C23c4ccccc4CC2Cc2c(C)cccc23)n2ccc(=O)c(O)c2C1=O` (stereo not shown) [Compound A82], the EC50 is less than 125 nM.

Molecule `O=C1c2c(O)c(=O)ccn2N(C23c4cccc(F)c4CC2Cc2c(F)cccc23)CN1CC(F)F` (stereo not shown) [Compound A71] came in with an EC50 of less than 125 nM.

With `O=C1c2c(O)c(=O)ccn2N(C23c4ccccc4CC2Cc2c(Cl)cccc23)CN1CCCF` (stereo not shown) [Compound A102], the EC50 fell in the range of 125 to 250 nM.

`Cc1cc(CN2CN(C34c5ccccc5CC3Cc3ccccc34)n3ccc(=O)c(O)c3C2=O)no1` (stereo not shown) [Compound A144] yielded an EC50 of less than 125 nM.
